From patent US20230158034A1, “CO-TREATMENT WITH CDK4/6 AND CDK2 INHIBITORS TO SUPPRESS TUMOR ADAPTATION TO CDK2 INHIBITORS” (Pfizer Inc., priority 2020, published 2023)

Tests used:
[1] = system: phosphorylated peptides containing a minimal CDK consensus motif (SP or TP) in MCF7 cells; experiment: Phospho-proteomics (mass spectrometry) of CDK substrate phosphorylation after PF3600; assay type: cell-based, Homo sapiens
Experimental: CDK2 substrate dynamics were globally assessed through phospho-proteomics.
Phospho-peptide enrichment was performed as previously described (Lapek et al., 2017b). Lyophilized phospho-peptides were then TMT-labeled and fractionated by reverse phase basic pH fractionation and fractions combined as previously described (Edwards and Haas, 2016). Fractions were lyophilized and stored at […] until MS analysis. For LC-MS2/MS3 analysis, samples were reconstituted in 10 μL of 5% acetonitrile in 5% formic acid and 8 μL of each fraction was injected on the Orbitrap Fusion Lumos for analysis.
Peptides were eluted on a 165-minute gradient of 7-32% solvent B (80% acetonitrile in 0.1% formic acid) at 300 nL/min on a PepMap RSLC C18 column (2 μm, 100 Å, 75 μm×50 cm) heated to 60° C. Spectra were acquired in Top Speed mode, with a 5 second cycle. MS1 data were collected in the Orbitrap at 60000 resolution across a range of 500-1500 m/z. An automatic gain control (AGC) target of 2×10^5 was used with a maximum injection time of 100 ms. MS2 data were acquired in the ion trap with a rapid scan rate, maximum injection time of 70 ms, and an AGC target of 2×10^4. The quadrupole was used for isolation, with an isolation window of 0.5 m/z. […]
Data were normalized in a multistep process as previously described (Lapek et al., 2017a). […] All phospho data was processed and analyzed at the peptide level.

[2] = system: CDK2 activity (DHB sensor phosphorylation); experiment: DHB-based CDK2 activity sensor, single-cell time-lapse imaging (C/N ratio); parameters: species or system human
Text: The DHB sensor is localized to the nucleus when it is not phosphorylated. Upon phosphorylation, the nuclear localization signal is masked, the nuclear export signal is unmasked, and the sensor steadily translocates to the cytoplasm in response to increasing CDK2 activity (FIG. 1A). Thus, kinase activity can be quantified by the ratio of the cytoplasmic to nuclear fluorescence intensity (C/N ratio) of the DHB sensor. […] Asynchronously cycling cells were first imaged for approximately 20 hr in the absence of drug to establish the cell-cycle phase of each cell; the movie was then paused to add drug, and then imaging was continued for another 1-2 days. Because the cells were cycling asynchronously, all cell-cycle phases with one drug treatment were sampled. This allowed the present inventors to computationally isolate traces for cells that received drug at any time since the completion of anaphase.
Cells were seeded at least 24 hr prior to imaging in phenol-red-free full-growth medium in glass-bottom 96-well plates (CellVis P96-1.5H-N) that were coated with collagen prior to seeding. The seeding density was chosen such that the cells would remain sub-confluent until the end of the imaging period. Cells were first imaged for 16-20 hr in full-growth media without drug. The movie was then briefly paused and the full-growth media was replaced with full-growth media containing drug at the desired concentration. The plate was then re-inserted into the microscope and aligned to its prior position and imaging was continued for an additional 24-48 hr. Images were acquired every 12 min (for MCF10A or RPE-hTERT) or every 20 min (for MCF7 or OVCAR3) on a Nikon Eclipse Ti or Ti2 microscope with a 10×0.45 NA objective in a humidified, 37° C. chamber at 5% CO2. Exposure times for all movies for all channels were kept under 500 ms per timepoint to minimize phototoxicity. Cell tracking was performed using published MATLAB scripts (Cappell et al., 2016), as described previously (Arora et al., 2017). The tracking code is available for download at https://github.com/scappell/Cell_tracking. Cell counts over time were obtained by counting the number of segmented nuclei in each frame of the movie.
Asynchronously cycling cells that divided and received drug treatments during the imaging period were initially segmented into categories based on the cells' time of anaphase relative to the time of drug addition. These cells were then additionally subcategorized based on their DHB cytoplasmic/nuclear (C/N) ratio after the mitotic event. C/N ratio was calculated by quantifying the ratio of cytoplasmic to nuclear mean DHB fluorescence, with the cytoplasmic component calculated as the mean of the top 50th percentile of a ring of pixels outside of the nuclear mask.
Cells were classified as CDK2^inc if the DHB C/N ratio was above 0.5 units 3 hr after anaphase, otherwise they were classified as CDK2^low. Figure legends indicate whether only CDK2^inc cells or whether all cells are plotted. The median of the single-cell traces in a subcategory was then used to create median trace with 95% confidence interval representative of the particular subcategory. All cell trace analysis was done using custom MATLAB scripts and code is available upon request.

[3] = PF3600, MCF10A, MCF7 and RPE-hTERT cells

| SMILES | number of SP/TP peptides whose phosphorylation was significantly reduced (p<0.05) ([1]; 25 nM PF3600, 1 hr) | fate of the reduced phosphopeptides at 24 hr ([1]; 25 nM PF3600, 24 hr) | DHB sensor phosphorylation behavior ([2]; 25 nM PF3600, MCF7) | DHB sensor phosphorylation behavior ([2]; 100 nM PF3600, MCF7) | cells that initially responded ([2]; PF3600) | rebound of DHB sensor phosphorylation ([2]; PF3600, OVCAR3 cells) | onset of rebound in DHB sensor phosphorylation [2, 3] | time until DHB sensor phosphorylation returned to pre-treatment levels [2, 3] | effect on DHB sensor phosphorylation, cell-cycle progression, or the timing of mitosis ([2]; 1 μM palbociclib added 5 hr or later after anaphase/mitosis, MCF10A) |
| --- | --- | --- | --- | --- | --- | --- | --- | --- | --- |
| C[C@@]1(O)CCC[C@H]1n1c(=O)c(C(F)F)cc2cnc(NC3CCN(S(C)(=O)=O)CC3)nc21 [PF3600, 6-(difluoromethyl)-8-[(1R,2R)-2-hydroxy-2-methylcyclopentyl]-2-{[1-(methylsulfonyl)-piperidin-4-yl]amino}pyrido[2,3-d]pyrimidin-7(8H)-one] | 40 peptides | vast majority of these rebounded to control levels | drop-rebound behavior | brief rebound followed by long-lived suppression of DHB phosphorylation | 100% | did not rebound | 1 to 2 h | ≤ 5 h |  |
| CC(=O)c1c(C)c2cnc(Nc3ccc(N4CCNCC4)cn3)nc2n(C2CCCC2)c1=O [palbociclib] |  |  |  |  |  |  |  |  | no immediate effect |
